Molecules are shown by their SMILES. Calls of active or inactive are those of the source. No cut-off for these calls is given here.

From ChEMBL document CHEMBL3877309, “Determination of binding modes and binding constants for the complexes of 6H-pyrido[4,3-b]carbazole derivatives with DNA” (Bioorg Med Chem, 2017) come the findings set out here.

In one assay the test system is Salmonidae. As to the kind of experiment: Binding affinity to salmon sperm DNA assessed as DNA intercalation at 0.04 mole fraction after 5 mins by UV-Vis spectroscopic method.
The nature of assay [1]: Binding affinity to synthetic biotin-labeled 30-mer AT-rich duplex DNA in pH 7.4 EDTA buffer solution in presence of 0.05 M NaCl at 25 degC by QCM sensogram analysis.
Assay [2] in a line: Binding affinity to synthetic biotin-labeled 30-mer GC-rich duplex DNA in pH 7.4 EDTA buffer solution in presence of 0.05 M NaCl at 25 degC by QCM sensogram analysis.
Assay [3] in a line: Binding affinity to synthetic biotin-labeled 30-mer GC-rich duplex DNA in pH 7.4 EDTA buffer solution assessed as association rate constant in presence of 0.05 M NaCl at 25 degC by QCM sensogram analysis.
Assay [4] in a line: Binding affinity to synthetic biotin-labeled 30-mer GC-rich duplex DNA in pH 7.4 EDTA buffer solution assessed as dissociation rate constant in presence of 0.05 M NaCl at 25 degC by QCM sensogram analysis.
Assay [5] is described as follows: Binding affinity to synthetic biotin-labeled 30-mer AT-rich duplex DNA in pH 7.4 EDTA buffer solution assessed as association rate constant in presence of 0.05 M NaCl at 25 degC by QCM sensogram analysis.
Assay [6] is described as follows: Binding affinity to synthetic biotin-labeled 30-mer AT-rich duplex DNA in pH 7.4 EDTA buffer solution assessed as dissociation rate constant in presence of 0.05 M NaCl at 25 degC by QCM sensogram analysis.
A short description of assay [7]: Binding affinity to synthetic biotin-labeled 30-mer AT-rich duplex DNA in pH 7.4 EDTA buffer solution assessed as ratio of association rate constant to dissociation rate constant in presence of 0.05 M NaCl at 25 degC by QCM sensogram analysis.
The nature of assay [8]: Binding affinity to synthetic biotin-labeled 30-mer GC-rich duplex DNA in pH 7.4 EDTA buffer solution assessed as ratio of association rate constant to dissociation rate constant in presence of 0.05 M NaCl at 25 degC by QCM sensogram analysis.
Assay [9] can be described thus: Binding affinity to synthetic biotin-labeled 30-mer GC-rich duplex DNA in pH 7.8 Tris-Hcl buffer solution assessed as association rate constant in presence of 0.1 M NaCl at 25 degC by QCM sensogram analysis.
Assay [10] in a line: Binding affinity to synthetic biotin-labeled 30-mer GC-rich duplex DNA in pH 7.8 Tris-Hcl buffer solution assessed as dissociation rate constant in presence of 0.1 M NaCl at 25 degC by QCM sensogram analysis.
Assay [11] is described as follows: Binding affinity to synthetic biotin-labeled 30-mer AT-rich duplex DNA in pH 7.8 Tris-Hcl buffer solution assessed as association rate constant in presence of 0.1 M NaCl at 25 degC by QCM sensogram analysis.
The nature of assay [12]: Binding affinity to synthetic biotin-labeled 30-mer AT-rich duplex DNA in pH 7.8 Tris-Hcl buffer solution assessed as dissociation rate constant in presence of 0.1 M NaCl at 25 degC by QCM sensogram analysis.
Assay [13] in a line: Binding affinity to synthetic biotin-labeled 30-mer GC-rich duplex DNA in pH 7.8 Tris-Hcl buffer solution assessed as ratio of association rate constant to dissociation rate constant in presence of 0.1 M NaCl at 25 degC by QCM sensogram analysis.
Assay [14] is described as follows: Binding affinity to synthetic biotin-labeled 30-mer AT-rich duplex DNA in pH 7.8 Tris-Hcl buffer solution assessed as ratio of association rate constant to dissociation rate constant in presence of 0.1 M NaCl at 25 degC by QCM sensogram analysis.

Consider `Cc1c2cc[n+](C)cc2c(C)c2c1[nH]c1ccc(O)cc12`, for which the result in the assay with Salmonidae was Active. Besides, the figures for the Ka in assay [1] and in assay [2] were 35.1 ×10⁵ /M and 47.2 ×10⁵ /M, respectively. Moreover, the K in assay [3] came out at 1.28 ×10⁴ /M/s; in assay [4], 2.01 ×10⁻³ /s; in assay [5] it was 0.78 ×10⁴ /M/s; in assay [6], 8.05 ×10⁻³ /s. Besides, the Ratio turned out to be 0.97 ×10⁶ /M in [7] and 6.37 ×10⁶ /M in assay [8].

With `CC[n+]1c(-c2ccccc2)c2cc(N)ccc2c2ccc(N)cc21`, the K in assay [9] is 1.2 ×10⁴ /M/s; in assay [10], 210 ×10⁻³ /s; in [11], 0.17 ×10⁴ /M/s; in [12] it was 150 ×10⁻³ /s. Moreover, the Ratio is 0.056 ×10⁶ /M in assay [13] and 0.011 ×10⁶ /M in assay [14].
